{"source": "paper PMC7923178", "about": "“Binding of Amyloid β(1–42)-Calmodulin Complexes to Plasma Membrane Lipid Rafts in Cerebellar Granule Neurons Alters Resting Cytosolic Calcium Homeostasis” (International Journal of Molecular Sciences, 2021)", "key": {"[1]": {"test_system": "L-type calcium channels (LTCCs)", "assay": "LTCC contribution to resting cytosolic calcium (nifedipine-sensitive Fura-2 ratio)"}, "[2]": {"target": "purified calmodulin (CaM)", "settings": "previous work, read-out: dissociation constant of the complex with purified CaM; cited from earlier work", "description": "Lipid rafts are a primary target in studies of amyloid β (Aβ) cytotoxicity in neurons. Exogenous Aβ peptides bind to lipid rafts, which in turn play a key role in Aβ uptake, leading to the formation of neurotoxic intracellular Aβ aggregates. On the other hand, dysregulation of intracellular calcium homeostasis in neurons has been observed in Alzheimer’s disease (AD). […] In this work, to experim ... || Dysregulation of intracellular calcium homeostasis in neurons is a common metabolic feature in both sporadic and familial forms of AD, which by itself can account for enhanced intraneuronal Aβ production and tau hyperphosphorylation potentiation. […] The ... || (+ 1 further places)"}, "calmodulin (CaM) [3]": {"test_system": "calmodulin (CaM)", "assay": "Co-immunoprecipitation of CaM with anti-Aβ antibody in CGN lysates", "assay_type": "binding, rat", "settings": "CGN lysates treated with 10 mM methyl-β-cyclodextrin 30 min, western blot"}, "calmodulin (CaM) [4]": {"test_system": "calmodulin (CaM)", "assay": "Aβ(1–42) binding capacity of CaM in CGN, from western blot quantification of CaM", "design": "species or system rat", "settings": "per Petri plate with […] 10^6 CGN cells (56 ± 6 picomoles CaM per plate); Aβ(1–42) largely dimers"}, "mature CGN [5]": {"test_system": "mature CGN", "assay": "Resting cytosolic calcium, Fura-2 ratio (340/380) imaging", "assay_type": "cell-based, rat", "settings": "2 μM, 2–5 h incubation; MLocke's K25 medium; control 160 ± 30 nM"}, "neurons": {"test_system": "neurons", "settings": "small oligomeric states of the peptide; cited from earlier work"}, "mature CGN [6]": {"test_system": "mature CGN", "assay": "Internalization of Aβ(1–42) in mature CGN by fluorescence microscopy", "settings": "2 h incubation with 2 µM Aβ in extracellular medium (1.8 μM Aβ(1–42) plus 0.2 μM HiLyte-Fluor555 derivative), 37 °C, 5% CO2, assuming equal internalization rate, 102 cells"}}, "data": [{"molecule": "COC(=O)C1=C(C)NC(C)=C(C(=O)OC)C1c1ccccc1[N+](=O)[O-]", "note": "[nifedipine, Nifedipine]", "values": [{"measurement": "difference between the ratio 340/380 in the absence and presence of nifedipine", "setting": "[1]; CGN non-treated with amyloid β(1–42), nifedipine 2 μM or 10 µM", "value": 0.64}, {"measurement": "blockade of Ca2+ entry in the soma", "setting": "[1]; nifedipine 10 µM, untreated and Aβ-treated cells", "value": "totally blocks"}]}, {"molecule": "Aβ(25–35): amyloid β peptide fragment 25–35, cited from previous work (GSNKGAIIGLM; Amyloid-beta protein 42; UniProt P05067 696-706, looked up, fragment)", "values": [{"measurement": "Kd", "setting": "[2]", "value": "~1", "unit": "nM"}]}, {"molecule": "Aβ(1–42): Unlabeled amyloid β(1–42) peptide synthesized and supplied by StabVida", "values": [{"measurement": "co-immunoprecipitation of CaM with anti-Aβ(1–42) antibody", "setting": "calmodulin (CaM) [3]", "value": "co-immunoprecipitation of CaM with the anti-Aβ(1–42) antibody"}, {"measurement": "Aβ(1–42) that can be bound by CaM in CGN", "setting": "calmodulin (CaM) [4]", "value": "up to 120 ± 13 picomoles of Aβ(1–42) /2.5 × 10^6 cells"}, {"measurement": "[Ca^2+]i", "setting": "mature CGN [5]", "value": "71 ± 7", "unit": "nM"}, {"measurement": "Kd", "setting": "[2]", "value": "~1", "unit": "nM"}, {"measurement": "half-time of internalization in neurons", "setting": "neurons", "value": "12 to 14", "unit": "h"}, {"measurement": "intracellular (internalized) concentration of Aβ monomers", "setting": "mature CGN [6]", "value": "193 ± 21", "unit": "nM"}, {"measurement": "inhibition of LTCC activity", "setting": "[1]; 2 µM (monomers) in medium, 2 h incubation of mature CGN", "value": "about 50%"}, {"measurement": "IC50", "setting": "[1]; read-out: concentration of internalized Aβ(1–42) dimers that inhibited by 50% the LTCC's activity, internalized dimers after 2 h with 2 µM monomers", "value": "< 100", "unit": "nM"}]}]}
